Measurements as given in patent publication US20090263324A1, “Animal Model With Induced Arrhythmia” (priority 2005, published 2009).

Experiments:
[1] = system: chronic atrioventricular block monkeys; experiment: Evaluation of QT interval prolongation by dl-sotalol (Holter electrocardiogram); assay type: in vivo, cynomolgus monkey; details: oral administration of 5 mg/kg
Source text: QTc interval (ms) is a value obtained by correcting the fluctuation of QT interval due to heart rate by a numerical formula, and can be obtained by the following equation.
QTc=QT÷^3√{square root over ( )} (60÷ventricular rhythm)
Here, ventricular rhythm refers to the frequency of excitation of the ventricle in a complete atrioventricular block, and the unit of measurement is beat/minute.
Next, a comparison is made between the QT interval or QTc interval in the recipient animal and the QT interval or QTc interval in the same animal but before administration. QT interval or QTc interval prolongation can be determined by (value after administration)−(value before administration).
As the control solution, 0.5% methylcellulose solution was orally administered, and changes of electrocardiogram were examined; on a later day, 5 mg/kg dl-sotalol (group-3 antiarrhythmic agent) was orally administered to the same animals, and electrocardiogram was measured.

[2] = system: chronic atrioventricular block monkey model; experiment: Examination for onset of Torsades de pointes (TdP) with dl-sotalol administration; assay type: in vivo, cynomolgus monkey; details: five animals
Method: A Holter electrocardiograph was attached to each of five animals of the chronic atrioventricular block monkey model obtained in Example 1; 1, 3, 5 or 10 mg/kg dl-sotalol was orally administered to each animal, and electrocardiogram after administration was monitored.

## CC(C)NCC(O)c1ccc(NS(C)(=O)=O)cc1 (racemic) [dl-sotalol]
[1]
  time after administration with statistically significant QTc action compared to the solvent group: 1 to 4 h
[1]; Holter electrocardiograph for 24 hours, compared to the solvent group
  QTc interval prolongation: QTc interval prolongation was observed
[2]; 5 mg/kg orally
  animals in which TdP occurred: 4 of the 5 animals
[2]; 10 mg/kg orally
  animals in which TdP occurred: all animals
